# pEC50: −log10 of the molar value. Read-outs that look alike come from different tables or passages of the source.
# Experiments:
# [1] = molecular target: human CB1 receptor (hCB1) (Homo sapiens, UniProt P21554); experiment: cell-based; assay type: cell-based; details: for +/− HCB1: agonist or inverse agonist at hCB1; for EC50: groups >100 nM-10 μM and >10 μM, cAMP, CHO-K1 hCB1, read-out: EC50 HCB1
# Summary of the method: (§1)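 First, cells in IBMX-containing HEPES-buffered HBSS are raised to elevated cAMP with 2-8 μM NKH-477 for 30 min. Data are normalised to the forskolin and forskolin + 1 μM CP55,940 controls.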
# rat CB2 receptor (rCB2) = molecular target: T1, rat CB2 receptor (rCB2) (Rattus norvegicus, UniProt Q9QZN9); experiment: cell-based; assay type: cell-based; details: for +/− RCB2: agonist or inverse agonist at rCB2; for EC50: groups >100 nM-10 μM and >10 μM, cAMP, CHO-K1 rCB2, read-out: EC50 RCB2
# T1 sequence (Q9QZN9 1-360): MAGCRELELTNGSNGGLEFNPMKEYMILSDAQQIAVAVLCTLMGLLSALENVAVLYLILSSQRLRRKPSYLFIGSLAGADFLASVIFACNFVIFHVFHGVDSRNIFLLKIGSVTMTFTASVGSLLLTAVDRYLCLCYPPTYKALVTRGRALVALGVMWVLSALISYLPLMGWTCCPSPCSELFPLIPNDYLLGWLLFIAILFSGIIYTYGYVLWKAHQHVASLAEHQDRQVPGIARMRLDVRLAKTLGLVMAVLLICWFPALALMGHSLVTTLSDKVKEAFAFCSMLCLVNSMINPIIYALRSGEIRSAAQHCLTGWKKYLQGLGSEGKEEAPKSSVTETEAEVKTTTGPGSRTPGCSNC
# Summary of the method: as §1
# Sequence of human CB1 receptor (hCB1) (P21554 whole entry): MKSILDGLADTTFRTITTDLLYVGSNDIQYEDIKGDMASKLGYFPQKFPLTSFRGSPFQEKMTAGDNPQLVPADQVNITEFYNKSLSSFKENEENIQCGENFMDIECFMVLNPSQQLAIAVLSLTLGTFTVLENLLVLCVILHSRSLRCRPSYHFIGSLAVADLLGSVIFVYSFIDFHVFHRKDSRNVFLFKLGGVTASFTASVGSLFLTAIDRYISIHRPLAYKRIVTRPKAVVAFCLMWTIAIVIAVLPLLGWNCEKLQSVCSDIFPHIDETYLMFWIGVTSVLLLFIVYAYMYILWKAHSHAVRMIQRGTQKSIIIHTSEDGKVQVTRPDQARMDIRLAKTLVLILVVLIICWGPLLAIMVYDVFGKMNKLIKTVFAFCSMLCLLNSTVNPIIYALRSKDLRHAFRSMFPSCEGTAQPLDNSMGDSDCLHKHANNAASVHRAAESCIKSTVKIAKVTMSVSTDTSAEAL
SMILES,pEC50 [1],+/− RCB2 (rat CB2 receptor (rCB2)),also measured
"CNC(=O)[C@@H](NC(=O)c1nc(-c2ccc(F)cc2Cl)n2c1CN(C)CCC2)C(C)(C)C [Compound 337, (S)-3-(2-chloro-4-fluorophenyl)-N-(3,3-dimethyl-1-(methylamino)-1-oxobutan-2-yl)-8-methyl-6,7,8,9-tetrahydro-5H-imidazo[1,5-a][1,4]diazepine-1-carboxamide]",< 5.00,+,
"CNC(=O)[C@@H](NC(=O)c1nc(-c2ccccc2)n2c1CN(C(=O)CC(C)(C)C)CC2)C(C)(C)C [Compound 188, (S)-N-(3,3-dimethyl-1-(methylamino)-1-oxobutan-2-yl)-7-(3,3-dimethylbutanoyl)-3-phenyl-5,6,7,8-tetrahydroimidazo[1,5-a]pyrazine-1-carboxamide]",< 5.00,−,
"CNC(=O)[C@@H](NC(=O)c1nc(-c2ccccc2)n2c1CN(c1cccc(Cl)n1)CC2)C(C)(C)C [Compound 299, (S)-7-(6-chloropyridin-2-yl)-N-(3,3-dimethyl-1-(methylamino)-1-oxobutan-2-yl)-3-phenyl-5,6,7,8-tetrahydroimidazo[1,5-a]pyrazine-1-carboxamide]",,−,+/− HCB1 [1]: +
"CC(C)(C)CNC(=O)c1nc(-c2ccccc2)n2c1CN(S(=O)(=O)c1ccccc1)CC2 [Compound 104, N-neopentyl-3-phenyl-7-(phenylsulfonyl)-5,6,7,8-tetrahydroimidazo[1,5-a]pyrazine-1-carboxamide]",< 5.00,−,
"CC(C)(C)[C@H](CO)NC(=O)c1nc(-c2ccccc2)n2c1CNCC2 [Compound 23, (R)-N-(1-hydroxy-3,3-dimethylbutan-2-yl)-3-phenyl-5,6,7,8-tetrahydroimidazo[1,5-a]pyrazine-1-carboxamide]",< 5.00,+,
"CNC(=O)[C@@H]1CCCN1C(=O)c1nc(-c2ccccc2)n2c1CN(C)CCC2 [Compound 603, (S)-N-methyl-1-(8-methyl-3-phenyl-6,7,8,9-tetrahydro-5H-imidazo[1,5-a][1,4]diazepine-1-carbonyl)pyrrolidine-2-carboxamide]",< 5.00,,pEC50 (rat CB2 receptor (rCB2)): < 5.00
"CNC(=O)[C@@H](NC(=O)c1nc(CCc2ccsc2)n2c1CN(C)CCC2)C(C)(C)C [Compound 495, (S)-N-(3,3-dimethyl-1-(methylamino)-1-oxobutan-2-yl)-8-methyl-3-(2-(thiophen-3-yl)ethyl)-6,7,8,9-tetrahydro-5H-imidazo[1,5-a][1,4]diazepine-1-carboxamide]",< 5.00,+,
"C[C@H](NC(=O)c1nc(-c2ccccc2)n2c1CNCC2)C(C)(C)C [Compound 27, (s)-N-(3,3-dimethylbutan-2-yl)-3-phenyl-5,6,7,8-tetrahydroimidazo[1,5-a]pyrazine-1-carboxamide]",< 5.00,,pEC50 (rat CB2 receptor (rCB2)): < 5.00
"CN1CCn2c(-c3ccccc3)nc(C(=O)NC(C)(C)CO)c2C1 [Compound 230, N-(1-hydroxy-2-methylpropan-2-yl)-7-methyl-3-phenyl-5,6,7,8-tetrahydroimidazo[1,5-a]pyrazine-1-carboxamide]",,,EC50 [1]: > 10000 nM; EC50 (rat CB2 receptor (rCB2)): > 10000 nM
"C[C@@H](NC(=O)c1nc(-c2ccccc2)n2c1CN(C)CC2)C(C)(C)C [Compound 50, (R)-N-(3,3-dimethylbutan-2-yl)-7-methyl-3-phenyl-5,6,7,8-tetrahydroimidazo[1,5-a]pyrazine-1-carboxamide]",,,EC50 [1]: > 10000 nM; EC50 (rat CB2 receptor (rCB2)): > 10000 nM
"CCCNC(=O)N1CCn2c(-c3ccccc3)nc(C(=O)N[C@H](C(=O)NC)C(C)(C)C)c2C1 [Compound 193, (S)-N1-(3,3-dimethyl-1-(methylamino)-1-oxobutan-2-yl)-3-phenyl-N7-propyl-5,6-dihydroimidazo[1,5-a]pyrazine-1,7(8H)-dicarboxamide]",< 5.00,−,
"CNC(=O)[C@@H](NC(=O)c1nc(-c2ccoc2)n2c1CN(C)CCC2)C(C)(C)C [Compound 440, (S)-N-(3,3-dimethyl-1-(methylamino)-1-oxobutan-2-yl)-3-(furan-3-yl)-8-methyl-6,7,8,9-tetrahydro-5H-imidazo[1,5-a][1,4]diazepine-1-carboxamide]",< 5.00,+,
CNC(=O)[C@@H](NC(=O)c1nc(/C=C/C2CCCCC2)n2c1CN(C)CCC2)C(C)(C)C [Compound 439],< 5.00,+,
"CNC(=O)[C@@H](NC(=O)c1nc(-c2cnn(C)c2)n2c1CN(C)CCC2)C(C)(C)C [Compound 447, (S)-N-(3,3-dimethyl-1-(methylamino)-1-oxobutan-2-yl)-8-methyl-3-(1-methyl-1H-pyrazol-4-yl)-6,7,8,9-tetrahydro-5H-imidazo[1,5-a][1,4]diazepine-1-carboxamide]",,+,+/− HCB1 [1]: +
"CCCCCCc1nc(C(=O)N[C@H](C(=O)NC)C(C)(C)C)c2n1CCCN(C)C2 [Compound 491, (S)-N-(3,3-dimethyl-1-(methylamino)-1-oxobutan-2-yl)-3-hexyl-8-methyl-6,7,8,9-tetrahydro-5H-imidazo[1,5-a][1,4]diazepine-1-carboxamide]",< 5.00,+,
"CNC(=O)[C@H](Cc1cscn1)NC(=O)c1nc(-c2cc(Cl)c(F)cc2F)n2c1CN(C)CCC2 [Compound 593, (S)-3-(5-chloro-2,4-difluorophenyl)-8-methyl-N-(1-(methylamino)-1-oxo-3-(thiazol-4-yl)propan-2-yl)-6,7,8,9-tetrahydro-5H-imidazo[1,5-a][1,4]diazepine-1-carboxamide]",,+,+/− HCB1 [1]: +
"CCCC/C=C/c1nc(C(=O)N[C@H](C(=O)NC)C(C)(C)C)c2n1CCCN(C)C2 [Compound 400, (S,E)-N-(3,3-dimethyl-1-(methylamino)-1-oxobutan-2-yl)-3-(hex-1-enyl)-8-methyl-6,7,8,9-tetrahydro-5H-imidazo[1,5-a][1,4]diazepine-1-carboxamide]",< 5.00,+,
"CN1CCCn2c(-c3ccc(F)cc3F)nc(C(=O)N[C@H](C(N)=O)C(C)(C)C)c2C1 [Compound 578, (S)-N-(1-amino-3,3-dimethyl-1-oxobutan-2-yl)-3-(2,4-difluorophenyl)-8-methyl-6,7,8,9-tetrahydro-5H-imidazo[1,5-a][1,4]diazepine-1-carboxamide]",,+,+/− HCB1 [1]: +
"CC(C)(C)OC(=O)N1CCn2c(-c3ccccc3)nc(C(=O)NC3C4(C)CCC(C4)C3(C)C)c2C1 (stereo not drawn) [Compound 30, tert-butyl 3-phenyl-1-(1,3,3-trimethylbicyclo[2.2.1]heptan-2-ylcarbamoyl)-5,6-dihydroimidazo[1,5-a]pyrazine-7(8H)-carboxylate]",< 5.00,−,
"CN1CCn2c(-c3ccc(Cl)cc3F)nc(C(=O)N3CCC4(CCN(C)C4=O)CC3)c2C1 [Compound 221, 8-(3-(4-chloro-2-fluorophenyl)-7-methyl-5,6,7,8-tetrahydroimidazo[1,5-a]pyrazine-1-carbonyl)-2-methyl-2,8-diazaspiro[4.5]decan-1-one]",< 5.00,,pEC50 (rat CB2 receptor (rCB2)): < 5.00
"CNC(=O)[C@@H](NC(=O)c1nc(-c2ccccc2F)n2c1CN(C)CCC2)C(C)(C)C [Compound 353, (S)-N-(3,3-dimethyl-1-(methylamino)-1-oxobutan-2-yl)-3-(2-fluorophenyl)-8-methyl-6,7,8,9-tetrahydro-5H-imidazo[1,5-a][1,4]diazepine-1-carboxamide]",< 5.00,+,
